Measured values from patent US20200345746A1, “Oxazine Derivative for Use in the Prevention of Alzheimer's Disease in at Risk Patents” (Novartis AG, priority 2016, published 2020).
Where “and” joins values, the source holds several entries; their conditions need not be identical. Identical values can stand only once.

Key:
Type in all cases: in vivo
Aβ40 = Aβ40 in C57BL/6 mouse brain after chronic dosing (MSD assay); settings: for Average Aβ40 brain: mean ± SD, n = 4
Protocol: (§1) Frozen mouse forebrains were weighed and homogenized in 9 volumes (w/v) of ice-cold TBS-Complete (20 mM Tris-HCl pH 7.4, 137 mM NaCl, 1× Complete [Protease Inhibitor Cocktail Tablets: 1 836 145, Roche Diagnostics GmbH, Penzberg, Germany]) by sonication (90% duty cycle, output control 5, 40-55 pulses, [Sonifier 450, Branson]). After homogenization several 50 μl aliquots were prepared for analysis and were stored at −80° C.
Human Aβ peptide (1-40) trifluoroacetate salt (H 1194.1000, Bachem, Bubendorf, Switzerland) was used as calibration curve for Aβ1-40. It was solubilized in water-free DMSO (41647, Fluka) at a concentration of 1 mg/ml for approximately 30 min at room temperature (RT) and then visually checked for complete solubilization.
Endogenous Aβ40 in mice was determined with the Meso Scale Discovery (MSD) 96-well MULTI-ARRAY human/rodent (4G8) Aβ40 Ultrasensitive Assay (#K110FTE-3, Meso Scale Discovery, Gaithersburg, USA). The assay was performed according to the manufacturer's instructions except for the calibration curve and the sample preparations. TritonX-100 (TX-100) soluble Aβ40 was extracted from forebrain with 1% TX-100 using a 50 μl aliquot of each 1:10 forebrain homogenate, mixed with 50 μl 2% TX-100 in TBS complete (20 mM Tris-HCl pH 7.4, 137 mM NaCl, 1× Complete [Protease Inhibitor Cocktail Tablets: 1 836 145, Roche Diagnostics GmbH, Penzberg Germany]) to reach a final concentration of 1% TX-100 and a 1:20 forebrain dilution. The samples were incubated for 15 min on ice and vortexed every 5 min. The samples were ultra-centrifuged (100000×g, 4° C., 15 min) and 50 μl of the clear supernatants were transferred to fresh tubes. For the Aβ40 assay the supernatants were further diluted 1:5 in 3% Blocker A solution (from kit) to a final forebrain dilution of 1:100 and applied to the plate.
The calibration curve was prepared in a corresponding dilution of 1% Blocker A solution spiked with synthetic Aβ1-40 peptide (1.56-100 pg/ml) except for non-transgenic mouse brain samples: In this case, the calibration curve was prepared in a correspondingly diluted APP knockout mouse forebrain spiked with synthetic Aβ1-40 peptide (1.56-100 pg/ml). For all samples and standards 25 μl were applied per well. For each determination duplicate wells were performed. The mean values from the duplicate wells were used for calculations.
At the last day of the study, groups of n=4 mice were sacrificed 4 hours and 24 hours after having received the last dose. Forebrain was separated, and analyzed for β-amyloid peptide 1-40. Concentrations of Aβ40 for the vehicle and treatment groups are summarized in Table 6 and visualised in FIG. 2. The percent of reduction versus the corresponding vehicle treated group was calculated.

Aβ42 [1] = assay: Triton TX-100 soluble Aβ42 in APP23 mouse brain; settings: APP23 mice
Protocol: as §1
Human Aβ40 and 42 in mice was determined with the Meso Scale Discovery (MSD) 96-well MULTI-ARRAY human/rodent (6E10) Aβ40/42 Assay (Meso Scale Discovery, Rockville, Md., USA). The assay was performed according to the manufacturer's instructions except for the calibration curve and the sample preparations. […]
The calibration curve was prepared in a corresponding dilution of 1% Blocker A solution spiked with synthetic Aβ1-40 peptide (1.56-100 pg/ml) except for non-transgenic mouse brain samples: In this case, the calibration curve was prepared in a correspondingly diluted APP knockout mouse forebrain spiked with synthetic Aβ1-40 peptide (1.56-100 pg/ml). […] The relative units for samples and standards were imported into SOFTmax PRO 4.0 for calculation of standard curves and quantification of samples. […]

Aβ42 [2] = assay: First-in-human study: Aβ42 in CSF; settings: 2 weeks
Source text: The purpose of this study was to determine the single and multiple maximum tolerated dose of Compound 1 and to assess the pharmacokinetic/pharmacodynamic (PK/PD) relationship using Aβ in CSF as primary PD biomarker.
In the completed first-in-human and 3-month dose-ranging safety and tolerability clinical studies described in Examples 5 and 6, Aβ concentrations in CSF were obtained by means of lumbar punctures before the first dose (baseline) and respectively after 2 weeks and 3 months of multiple dosing. ApoE4 genotype also was obtained in the subjects who consented. The percent change from baseline in Aβ40 and Aβ42 concentrations was calculated in subjects who took the study treatment and had no major protocol deviation with potential impact on the evaluation of the pharmacodynamic effect. Tables 18 to 21 below provide summary statistics of the percent change from baseline by treatment group and ApoE genotype (E4 heterozygotes versus E4 non-carriers). Only one subject with CSF data was E4 homozygote (from the 3-month dose-ranging safety and tolerability study).

C[C@@]1(c2nc(NC(=O)c3ncc(C(F)(F)F)cc3Cl)ccc2F)CO[C@@](C)(C(F)(F)F)C(N)=N1 [Compound 1, N-(6-((3R,6R)-5-amino-3,6-dimethyl-6-(trifluoromethyl)-3,6-dihydro-2H-1,4-oxazin-3-yl)-5-fluoropyridin-2-yl)-3-chloro-5-(trifluoromethyl)picolinamide]
Average Aβ40 brain (Aβ40; C57BL/6, 8 μmol/kg q.d. 8 weeks, 4 h after last dose): 432.8 ± 140.5 pg/g | Average Aβ40 brain (Aβ40; C57BL/6, 8 μmol/kg q.d. 8 weeks, 24 h after last dose): 1098.6 ± 148.7 pg/g | % reduction vs vehicle (brain Aβ40) (Aβ40; C57BL/6, 8 μmol/kg, 4 h after last dose): 67.1% | % reduction vs vehicle (brain Aβ40) (Aβ40; C57BL/6, 8 μmol/kg, 24 h after last dose): 25% and 25.3% | Mini AU EC (brain Aβ40) (Aβ40; C57BL/6, 8 μmol/kg, after last dose): 46.2% | Average Aβ40 brain (Aβ40; C57BL/6, 50 μmol/kg q.d. 8 weeks, 4 h after last dose): 93.4 ± 83.7 pg/g | Average Aβ40 brain (Aβ40; C57BL/6, 50 μmol/kg q.d. 8 weeks, 24 h after last dose): 233.8 ± 36.5 pg/g | % reduction vs vehicle (brain Aβ40) (Aβ40; C57BL/6, 50 μmol/kg, 4 h after last dose): 92.9% | % reduction vs vehicle (brain Aβ40) (Aβ40; C57BL/6, 50 μmol/kg, 24 h after last dose): 84.1% | Mini AU EC (brain Aβ40) (Aβ40; C57BL/6, 50 μmol/kg, after last dose): 88.5% | Aβ40 reduction over the whole 24 hour time course (Aβ40; C57BL/6, 50 μmoles/kg, after last dose): 80-90% | Aβ42 change vs vehicle (Triton TX-100 soluble, brain) (Aβ42 [1]; 0.03 g/kg vs vehicle): −20.1% | Aβ42 change vs vehicle (Triton TX-100 soluble, brain) (Aβ42 [1]; 0.3 g/kg vs vehicle): −77.3% | Aβ42 % change from baseline, Mean (SD) (Aβ42 [2]; 10 mg, E4 heterozygotes): −59 (11) % | Aβ42 % change from baseline, Median (Aβ42 [2]; 10 mg, E4 heterozygotes): −64% | Aβ42 % change from baseline, Mean (SD) (Aβ42 [2]; 10 mg, E4 non-carriers): −58 (11) % | Aβ42 % change from baseline, Median (Aβ42 [2]; 10 mg, E4 non-carriers): −59% | Aβ42 % change from baseline, Mean (SD) (Aβ42 [2]; 30 mg, E4 non-carriers): −80 (6) % | Aβ42 % change from baseline, Median (Aβ42 [2]; 30 mg, E4 non-carriers): −82% | Aβ42 % change from baseline, Mean (SD) (Aβ42 [2]; 90 mg, E4 heterozygotes): −87 (2) % | Aβ42 % change from baseline, Median (Aβ42 [2]; 90 mg, E4 heterozygotes): −87% | Aβ42 % change from baseline, Mean (SD) (Aβ42 [2]; 90 mg, E4 non-carriers): −86 (5) % | Aβ42 % change from baseline, Median (Aβ42 [2]; 90 mg, E4 non-carriers): −87% | Aβ42 % change from baseline, Mean (SD) (Aβ42 [2]; 300 mg, E4 heterozygotes (n 1)): −89% | Aβ42 % change from baseline, Median (Aβ42 [2]; 300 mg, E4 heterozygotes (n 1)): −89% | Aβ42 % change from baseline, Mean (SD) (Aβ42 [2]; 300 mg, E4 non-carriers): −92 (1) % | Aβ42 % change from baseline, Median (Aβ42 [2]; 300 mg, E4 non-carriers): −91%
